This note sets out measurements from patent publication US20030215465A1, “Use of conjugated acid derivatives” (priority 2002, published 2003).

In the assay the test system is influenza virus. In words: resistance inducing effect of CLA against viral airway infections in rats exposed intranasally to influenza virus. Format: in vivo. To be noted: rats fed 1% CLA (FFA) for 5 weeks before intranasal influenza exposure; FIG. 1.

With Conjugated Linoleic Acid [CLA], the lungweight result is “increased”.
